The target of series [1] is Calcitonin gene-related peptide type 1 receptor (Homo sapiens, UniProt Q16602). The series is described as follows: Binding affinity to human CGRP receptor.
Series [2] is described as follows: Oxidative stability assessed as compound remaining in water at 0.15 mg/mL at pH 4 after 48 hrs in presence of free radical generator AAPH. It is filed as physicochemical. As to conditions: read-out: Activity.
The nature of series [3]: Hydrolytic stability assessed as compound remaining in water at 0.15 mg/mL at pH 4 after 4 weeks. It is filed as physicochemical. The conditions noted are these: read-out: Activity.
The nature of series [4]: Solubility at pH 7. The conditions noted are these: buffer. It counts as physicochemical.
A short description of series [5]: Oxidative stability assessed as formation of N-((R)-1-(1,4'-bipiperidin-1'-yl)-3-(7-methyl-1H-indazol-5-yl)-1-oxopropan-2-yl)-4-(8-fluoro-4-hydroxy-2-oxo-1,2-dihydroquinazolin-3(4H)-yl)piperidine-1-carboxamide in 0.05 M buffer at pH 5 after 12 weeks. It is filed as physicochemical. As to conditions: pH 5, 2016 h.
Series [6] can be described thus: Hydrolytic stability assessed as formation of (R)-2-(4-(8-fluoro-2-oxo-1,2-dihydroquinazolin-3(4H)-yl)piperidine-1-carboxamido)-3-(7-methyl-1H-indazol-5-yl)propanoic acid in 0.05 M buffer at pH 5 after 12 weeks. As to conditions: pH 5, 2016 h. It counts as physicochemical. Also noted: scale not given: the % may be the effect or the level left.
Series [7] can be described thus: Hydrolytic stability assessed as formation of 8-fluoro-3-(piperidin-4-yl)-3,4-dihydroquinazolin-2(1H)-one in 0.05 M buffer at pH 5 after 12 weeks. It counts as physicochemical. Also noted: scale not given: the % may be the effect or the level left. The conditions noted are these: pH 5, 2016 h.

Bounds are passed on as bounds.

What is called IC50 is the concentration that inhibits the measured activity by half. A word on the solubility: it is the concentration that dissolves in the medium under given conditions.

Chain of Calcitonin gene-related peptide type 1 receptor (Q16602 whole entry): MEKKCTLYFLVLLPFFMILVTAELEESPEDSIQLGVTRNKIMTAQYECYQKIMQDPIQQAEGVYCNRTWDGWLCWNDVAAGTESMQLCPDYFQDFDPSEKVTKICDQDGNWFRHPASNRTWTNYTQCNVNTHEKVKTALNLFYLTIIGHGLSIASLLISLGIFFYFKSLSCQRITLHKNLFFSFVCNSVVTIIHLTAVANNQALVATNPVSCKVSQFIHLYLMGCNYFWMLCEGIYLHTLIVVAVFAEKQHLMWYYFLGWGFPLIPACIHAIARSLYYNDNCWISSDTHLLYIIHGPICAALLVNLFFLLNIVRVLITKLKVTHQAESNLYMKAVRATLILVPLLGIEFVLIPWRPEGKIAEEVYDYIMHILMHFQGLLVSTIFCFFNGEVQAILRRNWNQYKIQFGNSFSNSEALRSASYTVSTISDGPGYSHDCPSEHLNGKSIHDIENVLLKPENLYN

As to `Cc1cc(C[C@@H](OC(=O)N2CCC(N3Cc4cccc(F)c4NC3=O)CC2)C(=O)N2CCC(N3CCCCC3)CC2)cc2cn[nH]c12`, the half-inhibitory concentration (IC50) in series [1] was determined as 0.011 nM.
As to `Cc1cc(C[C@@H](OC(=O)N2CCC(N3Cc4ccc(F)cc4NC3=O)CC2)C(=O)N2CCC(N3CCCCC3)CC2)cc2cn[nH]c12`, in series [1], the IC50 is 0.022 nM.
On the same count and under the same terms, next, `Cc1cc(C[C@@H](OC(=O)N2CCC(c3cc4ccccc4[nH]c3=O)CC2)C(=O)N2CCC3(CCN(C)CC3)CC2)cc2cn[nH]c12`: 0.044 nM.
Still for that read-out and setting: next, `Cc1cc(C[C@@H](OC(=O)N2CCC(c3cc4ccccc4[nH]c3=O)CC2)C(=O)N2CCN(c3ccncc3)CC2)cc2cn[nH]c12`: 0.063 nM; `Cc1cc(C[C@@H](OC(=O)N2CCC(c3cc4ccccc4[nH]c3=O)CC2)C(=O)N2CCC(N3CC=CCC3)CC2)cc2cn[nH]c12`: 0.053 nM; `Cc1cc(C[C@@H](OC(=O)N2CCC(c3cc4ccccc4cn3)CC2)C(=O)N2CCC(N3CCCCC3)CC2)cc2cn[nH]c12`: 0.18 nM.
`Cc1cc(C[C@@H](OC(=O)N2CCC(c3cc4ccccc4[nH]c3=O)CC2)C(=O)N2CCN(c3ccc(F)cc3)CC2)cc2cn[nH]c12`: in series [1], the IC50 amounted to 0.13 nM.
For the molecule `Cc1cc(C[C@@H](OC(=O)N2CCC(c3cc4ccccc4[nH]c3=O)CC2)C(=O)N2CCN(C3CCCCC3)CC2)cc2cn[nH]c12`, in series [1], the IC50 is 0.02 nM.
`Cc1cc(C[C@@H](OC(=O)N2CCC(N3Cc4ccccc4NC3=O)CC2)C(=O)N2CCC(N3CCCCC3)CC2)cc2cn[nH]c12`: in series [1], the half-maximal inhibitory concentration (IC50) was determined as 0.01 nM.
For the molecule `Cc1cc(C[C@@H](OC(=O)N2CCC(c3cc4ccccc4[nH]c3=O)CC2)C(=O)N2CCCCC2)cc2cn[nH]c12`, the IC50 in series [1] was determined as 1.8 nM.
On the same count and under the same terms, the same measure for `Cc1cc(C[C@@H](OC(=O)N2CCC(n3cc(-c4ccccc4)[nH]c3=O)CC2)C(=O)N2CCC(N3CCCCC3)CC2)cc2cn[nH]c12`: 0.068 nM.
Consider `Cc1cc(C[C@@H](OC(=O)N2CCC(c3cc4ccccc4[nH]c3=O)CC2)C(=O)N2CCC(N3CCCCC3)CC2)cc2cn[nH]c12`, for which the remaining at 48 h, 0.15 mg/mL in series [2] was 97%. Moreover, the remaining at 672 h, 0.15 mg/mL in series [3] was determined as 99%. The solubility in series [4] was above 50 mg/mL. In addition, the IC50 in series [1] was 0.017 nM.
For `Cc1cc(C[C@@H](OC(=O)N2CCC(c3cc4cccc(F)c4[nH]c3=O)CC2)C(=O)N2CCC(N3CCCCC3)CC2)cc2cn[nH]c12`, in series [1], the half-maximal inhibitory concentration (IC50) turned out to be 0.057 nM.
For the molecule `Cc1cc(C[C@@H](NC(=O)N2CCC(N3Cc4cccc(F)c4NC3=O)CC2)C(=O)N2CCC(N3CCCCC3)CC2)cc2cn[nH]c12`, the results for the Activity in series [5], in series [6] and in series [7] were 2%, 0.2% and 0.4%, respectively. Also, the remaining at 48 h, 0.15 mg/mL in series [2] amounted to 72%. For the same molecule, in series [3], the remaining at 672 h, 0.15 mg/mL was found to be 56%.

The values above are taken from ChEMBL document CHEMBL1136981, “Carbamates as potent calcitonin gene-related peptide antagonists with improved solution stability” (Bioorg Med Chem Lett, 2009).
